{
  "source": "patent US12138293B2",
  "about": "(priority 2020, dated 2024)",
  "key": {"[1]": {"system": "nitrogen mustard (NM)-exposed cornea", "set-up": "species or system New Zealand white rabbits", "settings": "rabbit, in vivo"}, "[2]": {"settings": "rabbit, in vivo"}, "[3]": {"format": "physicochemical"}, "in vivo": {"assay": "in vivo", "settings": "rabbit"}, "[4]": {"system": "eye of Dutch Belted rabbits", "settings": "rabbit, in vivo"}, "[5]": {"system": "transepithelial PTK injury of rabbit corneas", "set-up": "species or system rabbits", "settings": "in vivo"}, "[6]": {"settings": "rabbit, in vivo", "remark": "listed apart in the source"}, "[7]": {"system": "heptanol-induced corneal erosion (chemical burn injury) in rabbit eyes", "settings": "in vivo"}},
  "note": "Values joined by “and” are separate entries in the source; they are usually repeats but may differ in a detail not shown here. Identical values can stand only once. Like-named read-outs stand apart in the source and are kept apart here. Residues, ends and D or L forms follow the SMILES beside them.",
  "data": [
    {"compound": "CC[C@H](C)[C@H](NC(=O)[C@H](CCC(=O)O)NC(=O)[C@H](CC(C)C)NC(=O)[C@H](CC(=O)O)NC(=O)[C@H](CC(=O)O)NC(=O)[C@@H]1CCCN1C(=O)[C@H](CCCNC(=N)N)NC(=O)[C@@H]1CCCN1C(=O)[C@H](CCCNC(=N)N)NC(=O)[C@H](CCCCN)NC(=O)[C@H](CCCCN)NC(=O)[C@H](Cc1c[nH]c2ccccc12)NC(=O)[C@@H]1CCCN1C(=O)[C@H](CCCCN)NC(=O)[C@H](CCCNC(=N)N)NC(=O)[C@H](CCCNC(=N)N)NC(=O)[C@H](CC(N)=O)NC(=O)[C@@H]1CCCN1C(=O)[C@H](Cc1ccccc1)NC(=O)[C@H](Cc1c[nH]c2ccccc12)NC(=O)[C@@H](NC(=O)[C@H](CCCCN)NC(=O)[C@@H]1CCCN1C(=O)[C@H](CCC(N)=O)NC(=O)[C@H](CCCNC(=N)N)NC(=O)CCCCCNC(=O)CCCC[C@@H]1SC[C@@H]2NC(=O)N[C@@H]21)[C@@H](C)CC)C(=O)O", "note": "[aCT1, RQPKIWFPNRRKPWKK RPRPDDLEI] (HELM PEPTIDE1{[O=C1N[C@H]2[C@H](CS[C@H]2CCCCC(=O)[*:2])N1].[O=C(CCCCCN[*:1])[*:2]].R.Q.P.K.I.W.F.P.N.R.R.K.P.W.K.K.R.P.R.P.D.D.L.E.I}$$$$V2.0; N-terminus and C-terminus assumed)", "values": [
      {"measurement": "Corneal edema (corneal thickness)", "setting": "[1]", "value": "limited corneal edema damage"},
      {"measurement": "Corneal fibroblasts/keratocytes", "setting": "[1]", "value": "protection of corneal fibroblasts/keratocytes"},
      {"measurement": "Expression of COX-2", "setting": "[1]", "value": "reduced"},
      {"measurement": "Formation of new blood vessels in the corneal stroma", "setting": "[1]", "value": "limited the formation of new blood vessels"},
      {"measurement": "Inflammatory cell infiltration in the corneal stroma (H&E)", "setting": "[1]", "value": "significantly decreases inflammatory cell infiltration"},
      {"measurement": "MMP-9 expression in the stroma", "setting": "[1]", "value": "reduction in MMP-9 expression"},
      {"measurement": "VEGF expression", "setting": "[1]", "value": "decreased"},
      {"measurement": "Maximum tolerated dose (MTD)", "setting": "[2]", "value": "no maximum tolerated dose (MTD) was identified"},
      {"measurement": "Microscopic findings in the eye tissues", "setting": "[2]", "value": "no microscopic findings"},
      {"measurement": "No observed adverse effect level (NOAEL)", "setting": "[2]", "value": 1.0, "unit": "μmol/eye"},
      {"measurement": "Tolerability (cage-side or clinical observations, body weight, clinical pathology, organ weight, necropsy)", "setting": "[2]", "value": "well-tolerated and did not result in any adverse findings"},
      {"measurement": "Loss of Purity", "setting": "[3]; pH 6.5", "value": "0.67% and 0.24% and 0.03% and 0.76% and 1.05%"},
      {"measurement": "Loss of Purity (%)", "setting": "[3]; pH 6.5", "value": "0.44% and 0.39% and 0.30% and 0.19% and 0.06%"},
      {"measurement": "Loss of Purity (%)", "setting": "[3]; pH 7", "value": 0.33, "unit": "%"},
      {"measurement": "Loss of Purity (%)", "setting": "[3]; pH 7.5", "value": 0.50, "unit": "%"},
      {"measurement": "Tmax", "setting": "in vivo; both", "value": 15, "unit": "min"},
      {"measurement": "tissue level at time at 0.25 h", "setting": "in vivo; both, topical or ocular, 0.1 umol/eye/dose, Retinal tissue concentration", "value": "1.91 to 24.2", "unit": "ng/g"},
      {"measurement": "tissue level at time at 0.25 h", "setting": "in vivo; female, topical or ocular, 0.1 umol/eye/dose, Cornea mean level", "value": "181 ± 50", "unit": "ng/g"},
      {"measurement": "tissue level at time at 0.25 h", "setting": "in vivo; female, topical or ocular, 0.1 umol/eye/dose, Palpebral conjunctiva highest mean concentration", "value": "2730 ± 697", "unit": "ng/g"},
      {"measurement": "level at 0.25 h", "setting": "in vivo; male, topical or ocular, 0.1 umol/eye/dose", "value": "3.26 ± 5.28", "unit": "ng/mL"},
      {"measurement": "tissue level at time at 0.25 h", "setting": "in vivo; male, topical or ocular, 0.1 umol/eye/dose, Aqueous humor mean level", "value": "115 ± 76.3", "unit": "ng/g"},
      {"measurement": "tissue level at time at 0.25 h", "setting": "in vivo; male, topical or ocular, 0.1 umol/eye/dose, Palpebral conjunctiva highest mean concentration", "value": "939 ± 228", "unit": "ng/g"},
      {"measurement": "Contact of saline formulation with the ocular surface", "setting": "[4]", "value": "did not remain in contact with the ocular surface for a period of time sufficient"},
      {"measurement": "Corneal healing (fluorescein staining)", "setting": "[5]", "value": "accelerated corneal healing"},
      {"measurement": "Vitreous humor levels", "setting": "[6]", "value": "quantifiable levels"},
      {"measurement": "Whole blood concentration, all other samples", "setting": "[6]", "value": "below the lower limit of quantitation (LLOQ)"},
      {"measurement": "Corneal healing measured by central corneal thickness", "setting": "[7]", "value": "accelerated corneal healing"},
      {"measurement": "Corneal healing measured by fluorescein staining", "setting": "[7]", "value": "accelerated corneal healing"}
    ]}
  ]
}
